Columns and labels:
Assay type in all cases: functional
[1] = test system: SF-268; test: Cytotoxicity against Homo sapiens (human) SF268 assessed as cell growth at 10^-4 M after 48 hr by Alamar Blue assay; settings: SF-268, 48 h, read-out: Activity
[2] = test system: MCF7; test: Cytotoxicity against Homo sapiens (human) MCF7 assessed as cell growth at 10^-4 M after 48 hr by Alamar Blue assay; settings: MCF7, 48 h, read-out: Activity
[3] = test system: NCI-H460; test: Cytotoxicity against Homo sapiens (human) NCI-H460 assessed as cell growth at 10^-4 M after 48 hr by Alamar Blue assay; settings: NCI-H460, 48 h, read-out: Activity

Structure (SMILES)	growth at 100 µM [1] [%]	growth at 100 µM [2] [%]	growth at 100 µM [3] [%]
C1=c2ccccc2=C2ON=C(c3ccccc3)C(c3ccccc3)=C2S1	97	104	94
COc1ccc(C2=NOC3=c4ccccc4=CSC3=C2c2ccc(OC)cc2)cc1	105	116	102
COc1ccc(C2=NOC3=c4ccccc4=CSC3=C2c2ccccc2)cc1	106	97	101
COc1ccc(C2=C3SC=c4ccccc4=C3ON=C2c2ccc(C)cc2)cc1	103	98	84
O=[N+]([O-])c1ccc(C2=C3SC=c4ccccc4=C3ON=C2c2ccc(Cl)cc2)cc1	104	85	97
COc1ccc(C2=NOC3=c4ccccc4=CSC3=C2c2ccc(C)cc2)cc1	97	86	96
Cc1ccc(C2=NOC3=c4ccccc4=CSC3=C2c2ccc([N+](=O)[O-])cc2)cc1	111	99	97
